In ChEMBL document CHEMBL3877299, “Imidazopyridine-fused [1,3]-diazepinones part 2: Structure-activity relationships and antiproliferative activity against melanoma cells” (Eur J Med Chem, 2017):

Assays:
Type in all cases: functional
[1] = Growth inhibition of human COLO205 cells assessed as cell growth at 10 uM incubated for 48 hrs by sulforhodamine B assay relative to control; conditions: COLO 205, 48 h, read-out: Activity
[2] = Growth inhibition of human HCC2998 cells assessed as cell growth at 10 uM incubated for 48 hrs by sulforhodamine B assay relative to control; conditions: HCC 2998, 48 h, read-out: Activity
[3] = Growth inhibition of human TK10 cells assessed as cell growth at 10 uM incubated for 48 hrs by sulforhodamine B assay relative to control; conditions: TK-10, 48 h, read-out: Activity
[4] = Growth inhibition of human SK-MEL-28 cells assessed as cell growth at 10 uM incubated for 48 hrs by sulforhodamine B assay relative to control; conditions: SK-MEL-28, 48 h, read-out: Activity
[5] = Growth inhibition of human U251 cells assessed as cell growth at 10 uM incubated for 48 hrs by sulforhodamine B assay relative to control; conditions: U-251, 48 h, read-out: Activity
[6] = Growth inhibition of human SNB19 cells assessed as cell growth at 10 uM incubated for 48 hrs by sulforhodamine B assay relative to control; conditions: SNB-19, 48 h, read-out: Activity
[7] = Growth inhibition of human 786-0 cells assessed as cell growth at 10 uM incubated for 48 hrs by sulforhodamine B assay relative to control; conditions: 786-0, 48 h, read-out: Activity
[8] = Growth inhibition of human OVCAR5 cells assessed as cell growth at 10 uM incubated for 48 hrs by sulforhodamine B assay relative to control; conditions: OVCAR-5, 48 h, read-out: Activity
[9] = Growth inhibition of human Caki1 cells assessed as cell growth at 10 uM incubated for 48 hrs by sulforhodamine B assay relative to control; conditions: CAKI-1, 48 h, read-out: Activity
[10] = Growth inhibition of human SF539 cells assessed as cell growth at 10 uM incubated for 48 hrs by sulforhodamine B assay relative to control; conditions: SF-539, 48 h, read-out: Activity
[11] = Growth inhibition of human SNB75 cells assessed as cell growth at 10 uM incubated for 48 hrs by sulforhodamine B assay relative to control; conditions: SNB-75, 48 h, read-out: Activity
[12] = Growth inhibition of human CCRF-CEM cells assessed as cell growth at 10 uM incubated for 48 hrs by sulforhodamine B assay relative to control; conditions: read-out: Activity
[13] = Growth inhibition of human NCI-H23 cells assessed as cell growth at 10 uM incubated for 48 hrs by sulforhodamine B assay relative to control; conditions: NCI-H23, 48 h, read-out: Activity
[14] = Growth inhibition of human OVCAR8 cells assessed as cell growth at 10 uM incubated for 48 hrs by sulforhodamine B assay relative to control; conditions: OVCAR-8, 48 h, read-out: Activity
[15] = Growth inhibition of human LOXIMVI cells assessed as cell growth at 10 uM incubated for 48 hrs by sulforhodamine B assay relative to control; conditions: LOX IMVI, read-out: Activity
[16] = Growth inhibition of human SK-MEL-2 cells assessed as cell growth at 10 uM incubated for 48 hrs by sulforhodamine B assay relative to control; conditions: SK-MEL-2, 48 h, read-out: Activity
[17] = Growth inhibition of human ACHN cells assessed as cell growth at 10 uM incubated for 48 hrs by sulforhodamine B assay relative to control; conditions: read-out: Activity
[18] = Growth inhibition of human NCI/ADR-RES cells assessed as cell growth at 10 uM incubated for 48 hrs by sulforhodamine B assay relative to control; conditions: read-out: Activity
[19] = Growth inhibition of human MALME-3M cells assessed as cell growth at 10 uM incubated for 48 hrs by sulforhodamine B assay relative to control; conditions: read-out: Activity
[20] = Growth inhibition of human NCI-H522 cells assessed as cell growth at 10 uM incubated for 48 hrs by sulforhodamine B assay relative to control; conditions: NCI-H522, 48 h, read-out: Activity
[21] = Growth inhibition of human MDA-MB-435 cells assessed as cell growth at 10 uM incubated for 48 hrs by sulforhodamine B assay relative to control; conditions: MDA-MB-435, 48 h, read-out: Activity
[22] = Growth inhibition of human OVCAR4 cells assessed as cell growth at 10 uM incubated for 48 hrs by sulforhodamine B assay relative to control; conditions: OVCAR-4, 48 h, read-out: Activity
[23] = Growth inhibition of human SW620 cells assessed as cell growth at 10 uM incubated for 48 hrs by sulforhodamine B assay relative to control; conditions: SW-620, 48 h, read-out: Activity
[24] = Growth inhibition of human IGROV1 cells assessed as cell growth at 10 uM incubated for 48 hrs by sulforhodamine B assay relative to control; conditions: IGROV-1, 48 h, read-out: Activity
[25] = Growth inhibition of human HCT15 cells assessed as cell growth at 10 uM incubated for 48 hrs by sulforhodamine B assay relative to control; conditions: HCT-15, 48 h, read-out: Activity
[26] = Growth inhibition of human A549/ATCC cells assessed as cell growth at 10 uM incubated for 48 hrs by sulforhodamine B assay relative to control; conditions: A549, 48 h, read-out: Activity
[27] = Growth inhibition of human SF268 cells assessed as cell growth at 10 uM incubated for 48 hrs by sulforhodamine B assay relative to control; conditions: SF-268, 48 h, read-out: Activity
[28] = Growth inhibition of human RPMI8226 cells assessed as cell growth at 10 uM incubated for 48 hrs by sulforhodamine B assay relative to control; conditions: RPMI-8226, 48 h, read-out: Activity
[29] = Growth inhibition of human M14 cells assessed as cell growth at 10 uM incubated for 48 hrs by sulforhodamine B assay relative to control; conditions: M14, 48 h, read-out: Activity
[30] = Growth inhibition of human RXF393 cells assessed as cell growth at 10 uM incubated for 48 hrs by sulforhodamine B assay relative to control; conditions: RXF 393, 48 h, read-out: Activity
[31] = Growth inhibition of human KM12 cells assessed as cell growth at 10 uM incubated for 48 hrs by sulforhodamine B assay relative to control; conditions: KM12, 48 h, read-out: Activity
[32] = Growth inhibition of human MDA-MB-231 cells assessed as cell growth at 10 uM incubated for 48 hrs by sulforhodamine B assay relative to control; conditions: MDA-MB-231, 48 h, read-out: Activity
[33] = Growth inhibition of human UACC62 cells assessed as cell growth at 10 uM incubated for 48 hrs by sulforhodamine B assay relative to control; conditions: UACC-62, 48 h, read-out: Activity
[34] = Growth inhibition of human HL-60(TB) cells assessed as cell growth at 10 uM incubated for 48 hrs by sulforhodamine B assay relative to control; conditions: HL-60, 48 h, read-out: Activity
[35] = Growth inhibition of human NCI-H460 cells assessed as cell growth at 10 uM incubated for 48 hrs by sulforhodamine B assay relative to control; conditions: NCI-H460, 48 h, read-out: Activity

Row | Compound | growth at 10 µM [1] | growth at 10 µM [2] | growth at 10 µM [3] | growth at 10 µM [4] | growth at 10 µM [5] | growth at 10 µM [6] | growth at 10 µM [7] | growth at 10 µM [8] | growth at 10 µM [9] | growth at 10 µM [10] | growth at 10 µM [11] | growth at 10 µM [12] | growth at 10 µM [13] | growth at 10 µM [14] | growth at 10 µM [15] | growth at 10 µM [16] | growth at 10 µM [17] | growth at 10 µM [18] | growth at 10 µM [19] | growth at 10 µM [20] | further results
1 | C[C@@H]1NC(c2ccc(Cl)cc2)=Nc2nc3ccccn3c2C1=O | 91.8% | 91.6% | 114% | 92.8% | 92.5% | 93.2% | 108% | 109% | 84.6% | 84.7% | 92.5% | 90.8% | 81.4% | 90.3% | 88.2% | 84.8% | 88.3% | 85.6% | 76.2% | 66.3% | growth at 10 µM [21]: 32.9%; growth at 10 µM [22]: 109%; growth at 10 µM [23]: 83.6%; growth at 10 µM [24]: 50.7%; growth at 10 µM [25]: 77.6%; growth at 10 µM [26]: 85.8%; growth at 10 µM [27]: 87.3%; growth at 10 µM [28]: 91.3%; growth at 10 µM [29]: 91%; growth at 10 µM [30]: 97.9%; growth at 10 µM [31]: 64.2%; growth at 10 µM [32]: 76%; growth at 10 µM [33]: 78.6%; growth at 10 µM [34]: 102%; growth at 10 µM [35]: 96.1%
2 | CC(C)(C)OC[C@@H]1NC(c2ccc(Br)cc2)=Nc2nc3ccccn3c2C1=O | 62.6% | 90.9% | 95.1% | 68.6% | 63.5% | 76.5% | 94.2% | 105% | 64.2% | 75.8% | 77.4% | 67.8% | 71.5% | 79.5% | 58.7% | 49.2% | 75.3% | 39.7% | 51.5% | 33.4% | growth at 10 µM [21]: -13.8%; growth at 10 µM [22]: 82.3%; growth at 10 µM [23]: 40.3%; growth at 10 µM [24]: 40.8%; growth at 10 µM [25]: 44.1%; growth at 10 µM [26]: 51.6%; growth at 10 µM [27]: 74.3%; growth at 10 µM [28]: 67.5%; growth at 10 µM [29]: 46.4%; growth at 10 µM [30]: 61.6%; growth at 10 µM [31]: 49%; growth at 10 µM [32]: 61.5%; growth at 10 µM [33]: 53.6%; growth at 10 µM [34]: 33.1%; growth at 10 µM [35]: 41.3%
3 | C[C@@H]1NC(c2ccc3ccccc3c2)=Nc2nc3ccccn3c2C1=O | 22.8% | 77% | 64.4% | 59.9% | 32.5% | 53.3% | 69.3% | 90.6% | 38.5% | 37.2% | 37.1% | 52.9% | 46.1% | 54.4% | 48.5% | 36.3% | 55.4% | 44.5% | 42.3% | 29.4% | growth at 10 µM [21]: -24.6%; growth at 10 µM [22]: 74.5%; growth at 10 µM [23]: 26.3%; growth at 10 µM [24]: 32.1%; growth at 10 µM [25]: 33.8%; growth at 10 µM [26]: 39.5%; growth at 10 µM [27]: 58%; growth at 10 µM [28]: 43.8%; growth at 10 µM [29]: 19.8%; growth at 10 µM [30]: 49.9%; growth at 10 µM [31]: 30.3%; growth at 10 µM [32]: 52.5%; growth at 10 µM [33]: 48.8%; growth at 10 µM [34]: -6.75%; growth at 10 µM [35]: 15.2%
4 | C[C@@H]1NC(c2ccc(Cl)cc2Cl)=Nc2nc3ccccn3c2C1=O | 22.3% | 75.4% | 74.5% | 60.7% | 41.4% | 60.8% | 73.2% | 91.2% | 47.2% | 53% | 58.7% | 56.6% | 61.4% | 68.1% | 51.3% | 38.2% | 60.2% | 44.5% | 43.7% | 28.9% | growth at 10 µM [21]: -16.6%; growth at 10 µM [22]: 89.5%; growth at 10 µM [23]: 25.2%; growth at 10 µM [24]: 41.9%; growth at 10 µM [25]: 35.1%; growth at 10 µM [26]: 40.6%; growth at 10 µM [27]: 58.9%; growth at 10 µM [28]: 75.2%; growth at 10 µM [29]: 31.1%; growth at 10 µM [30]: 80.2%; growth at 10 µM [31]: 23.8%; growth at 10 µM [32]: 64.6%; growth at 10 µM [33]: 40.5%; growth at 10 µM [34]: 0.46%; growth at 10 µM [35]: 18.7%
